# Source: patent US20260193293A1, “PEPTIDES CAPABLE OF INHIBITING PROTEIN-PROTEIN INTERACTIONS AT GABAB1A SUBUNIT AND USES THEREOF” (UNIVERSITY OF COPENHAGEN, priority 2022, published 2026)
# Where two headings read alike, the source gives them in different places. Non-standard residues stand in square brackets, D forms with d. Residues, ends and D or L forms follow the SMILES beside them. *: point of attachment. 2Nal = N[C@@H](Cc1ccc2ccccc2c1)C(=O)O; NMeF = CN[C@@H](Cc1ccccc1)C(=O)O; Bn = c1ccc(C*)cc1
# Target: Sushi domains (SD1/2) protein
# Assay: Fluorescence polarization (FP) competition assay with AJAP-1probe, calculated Ki
# Assay type: binding
# Procedure, shortened: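 Competition against 25 nM TAMRA-labelled peptide probe binding SD1/2, in PBS pH 7.4 with 1% BSA at rt, read at 530/580 nm. IC50 from sigmoidal dose-response fits, at least triplicate; Ki calculated from IC50 using probe Kd from saturation binding.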
# [1] = Table 7, Ala-, D-amino acids and N-methylation scans of APPWT, read-out: Ki (nM) mean ± SEM
# [2] = Table 4, truncation and elongation scans of APP epitope, read-out: Ki (nM) mean ± SEM
# [3] = Table 6, elongation and truncation scan of PIANP binding epitope, read-out: Ki (nM) mean ± SEM
# [4] = Table 11, deep mutational scanning validation variants of AJAP-1WT, read-out: Ki (nM) mean ± SEM
# [5] = Table 16, ncAAs incorporated peptides, read-out: Ki (nM) mean ± SEM
# [6] = Table 1, affinity maturation, mean ± SEM, n ≥ 3, read-out: Ki
# [7] = Table 13, peptides for affinity maturation, read-out: Ki (nM) mean ± SEM
smiles,measurement,setting,value
CC(=O)N[C@@H](CCC(=O)O)C(=O)N[C@@H](CC(=O)O)C(=O)N[C@@H](C)C(=O)N[C@@H](CO)C(=O)N[C@@H](CC(=O)O)C(=O)N[C@H](C(=O)N[C@@H](Cc1c[nH]c2ccccc12)C(=O)N[C@@H](Cc1c[nH]c2ccccc12)C(=O)NCC(=O)NCC(=O)N[C@@H](C)C(=O)N[C@@H](CC(=O)O)C(=O)N[C@H](C(=O)N[C@@H](CC(=O)O)C(N)=O)[C@@H](C)O)C(C)C (Ac-EDASDVWWGGADTD-NH2),Ki,[1],1830 ± 54 nM
CC(=O)N[C@@H](CCC(=O)O)C(=O)N[C@@H](CCC(=O)O)C(=O)N[C@@H](CC(=O)O)C(=O)N[C@@H](CC(=O)O)C(=O)N[C@@H](CO)C(=O)N[C@@H](CC(=O)O)C(=O)N[C@H](C(=O)N[C@@H](Cc1c[nH]c2ccccc12)C(N)=O)C(C)C (Ac-EEDDSDVW-NH2),Ki,[2],> 62500 nM
CC[C@H](C)[C@H](NC(=O)[C@H](C)NC(=O)[C@H](Cc1c[nH]c2ccccc12)NC(=O)[C@@H]1CCCN1C(=O)[C@H](Cc1ccc(O)cc1)NC(=O)[C@H](CCC(N)=O)NC(=O)[C@H](CO)NC(=O)[C@H](CO)NC(C)=O)C(=O)N[C@H](C(=O)N[C@@H](Cc1c[nH]c2ccccc12)C(=O)NCC(=O)N1CCC[C@H]1C(=O)N[C@H](C(=O)N[C@H](C(=O)N[C@@H](CO)C(=O)N[C@@H](CCCNC(=N)N)C(=O)N[C@@H](CCC(=O)O)C(=O)N[C@@H](CC(=O)O)C(=O)NCC(N)=O)C(C)C)[C@@H](C)O)C(C)C (Ac-SSQYPWAIVWGPTVSREDG-NH2),Ki,[3],29900 ± 2000 nM
CC[C@H](C)[C@H](NC(=O)[C@H](Cc1c[nH]c2ccccc12)NC(=O)[C@H](CC(=O)O)NC(=O)[C@H](CC(=O)O)NC(=O)[C@H](CC(=O)O)NC(=O)[C@H](CCC(=O)O)NC(=O)[C@H](CCCNC(=N)N)NC(=O)[C@H](CCCNC(=N)N)NC(=O)[C@H](CCCNC(=N)N)NC(=O)[C@H](CCCNC(=N)N)NC(=O)[C@H](CCCNC(=N)N)NC(=O)[C@H](CCCNC(=N)N)NC(C)=O)C(=O)N[C@@H](CC(=O)O)C(=O)N[C@@H](Cc1c[nH]c2ccccc12)C(=O)NCC(=O)N1CCC[C@H]1C(=O)N[C@H](C(=O)N[C@@H](CO)C(=O)N[C@@H](CC(=O)O)C(=O)N[C@@H](CC(=O)O)C(=O)N[C@@H](CC(=O)O)C(N)=O)[C@@H](C)O (Ac-RRRRRREDDDWIDWGPTSDDD-NH2),Ki,"Table 14, CPPs tagged peptides, read-out: Ki (nM) mean ± SEM",43.4 ± 1 nM
CC(=O)N[C@@H](CO)C(=O)N[C@@H](CC(=O)O)C(=O)N[C@H](C(=O)N[C@@H](Cc1c[nH]c2ccccc12)C(=O)N[C@@H](Cc1c[nH]c2ccccc12)C(=O)NCC(=O)NCC(=O)N[C@@H](C)C(=O)N[C@@H](CC(=O)O)C(=O)N[C@H](C(=O)N[C@@H](CC(=O)O)C(=O)N[C@@H](Cc1ccc(O)cc1)C(=O)N[C@@H](C)C(=O)N[C@@H](CC(=O)O)C(N)=O)[C@@H](C)O)C(C)C (Ac-SDVWWGGADTDYAD-NH2),Ki,[2],2950 ± 82 nM
CC[C@H](C)[C@H](NC(=O)[C@H](Cc1ccccc1)N(C)C(=O)[C@H](CCC(=O)O)NC(=O)[C@@H](NC(=O)[C@H](CCC(=O)O)NC(C)=O)[C@@H](C)O)C(=O)N[C@@H](C)C(=O)N[C@@H](Cc1c[nH]c2ccccc12)C(=O)NCC(=O)N1CCC[C@H]1C(=O)N[C@H](C(=O)NCC(=O)N[C@@H](CC(=O)O)C(=O)N[C@@H](CCC(=O)O)C(=O)N[C@@H](CC(=O)O)C(N)=O)[C@@H](C)O [ETE(N-Me-F)IAWGPTGDED] (Ac-ETE[NMeF]IAWGPTGDED-NH2),Ki,"Table 8, Ala-, D-amino acids and N-methylation scans of AJAP-1WT, read-out: Ki (nM) mean ± SEM",252 ± 5 nM
CC(=O)N[C@@H](CCC(=O)O)C(=O)N[C@@H](CC(=O)O)C(=O)N[C@@H](CC(=O)O)C(=O)N[C@@H](CO)C(=O)N[C@@H](CC(=O)O)C(=O)N[C@H](C(=O)N[C@@H](Cc1c[nH]c2ccccc12)C(=O)N[C@@H](Cc1c[nH]c2ccccc12)C(=O)NCC(=O)NCC(=O)N[C@@H](C)C(=O)N[C@@H](CC(=O)O)C(=O)N[C@@H](C)C(=O)N[C@@H](CC(=O)O)C(N)=O)C(C)C (Ac-EDDSDVWWGGADAD-NH2),Ki,[1],480 ± 8 nM
CC[C@H](C)[C@H](NC(=O)[C@H](C)NC(=O)[C@H](Cc1c[nH]c2ccccc12)NC(=O)[C@@H]1CCCN1C(C)=O)C(=O)N[C@H](C(=O)N[C@@H](Cc1c[nH]c2ccccc12)C(=O)NCC(=O)N1CCC[C@H]1C(=O)N[C@H](C(=O)N[C@H](C(=O)N[C@@H](CO)C(=O)N[C@@H](CCCNC(=N)N)C(=O)N[C@@H](CCC(=O)O)C(=O)N[C@@H](C)C(N)=O)C(C)C)[C@@H](C)O)C(C)C (Ac-PWAIVWGPTVSREA-NH2),Ki,"Table 9, Ala-, D-amino acids and N-methylation scans of PIANPWT, read-out: Ki (nM) mean ± SEM",572 ± 9 nM
CC[C@H](C)[C@H](NC(=O)[C@H](Cc1ccccc1)NC(=O)[C@H](CCC(=O)O)NC(=O)[C@@H](NC(=O)[C@H](CCC(=O)O)NC(C)=O)[C@@H](C)O)C(=O)N[C@@H](C)C(=O)N[C@@H](Cc1c[nH]c2ccccc12)C(=O)NCC(=O)N1CCC[C@H]1C(=O)N[C@H](C(=O)NCC(=O)N[C@@H](CC(=O)O)C(=O)N[C@@H](CCC(=O)O)C(=O)N[C@@H](CC(N)=O)C(N)=O)[C@@H](C)O (Ac-ETEFIAWGPTGDEN-NH2),Ki,[4],43 ± 2 nM
CC(=O)N[C@@H](CCC(=O)O)C(=O)N[C@@H](CC(=O)O)C(=O)N[C@@H](CC(=O)O)C(=O)N[C@@H](CO)C(=O)N[C@@H](CC(=O)O)C(=O)N[C@H](C(=O)N[C@@H](Cc1c[nH]c2ccccc12)C(=O)N[C@@H](Cc1c[nH]c2ccccc12)C(=O)N[C@@H](Cc1ccc(OCc2ccccc2)cc1)C(=O)NCC(=O)N[C@@H](C)C(=O)N[C@@H](CC(=O)O)C(=O)N[C@H](C(=O)N[C@@H](CC(=O)O)C(N)=O)[C@@H](C)O)C(C)C (Ac-EDDSDVWWY(Bn)GADTD-NH2),Ki,[5],88 ± 4 nM
CC(=O)N[C@@H](CC(=O)O)C(=O)N[C@@H](CC(=O)O)C(=O)N[C@@H](CO)C(=O)N[C@@H](CC(=O)O)C(=O)N[C@H](C(=O)N[C@@H](Cc1c[nH]c2ccccc12)C(=O)N[C@@H](Cc1c[nH]c2ccccc12)C(=O)NCC(=O)NCC(=O)N[C@@H](C)C(=O)N[C@@H](CC(=O)O)C(=O)N[C@H](C(=O)N[C@@H](CC(=O)O)C(=O)N[C@@H](Cc1ccc(O)cc1)C(=O)N[C@@H](C)C(=O)N[C@@H](CC(=O)O)C(N)=O)[C@@H](C)O)C(C)C (Ac-DDSDVWWGGADTDYAD-NH2),Ki,[2],517 ± 16 nM
CC[C@H](C)[C@H](NC(=O)[C@H](Cc1ccc(OCc2ccccc2)cc1)NC(=O)[C@H](CC(=O)O)NC(=O)[C@H](CC(=O)O)NC(=O)[C@H](CC(=O)O)NC(=O)[C@H](CCC(=O)O)NC(C)=O)C(=O)N[C@@H](CC(=O)O)C(=O)N[C@@H](Cc1c[nH]c2ccccc12)C(=O)NCC(=O)N1CCC[C@H]1C(=O)N[C@H](C(=O)N[C@@H](CO)C(=O)N[C@@H](CC(=O)O)C(=O)N[C@@H](CC(=O)O)C(=O)N[C@@H](CC(=O)O)C(N)=O)[C@@H](C)O [Peptide 35] (Ac-EDDDY(Bn)IDWGPTSDDD-NH2),Ki,[6],9.5 ± 0.3 nM
same,Ki,[5],9.5 ± 0.3 nM
CC(=O)N[C@@H](CCC(=O)O)C(=O)N[C@@H](CCC(=O)O)C(=O)N[C@@H](CC(=O)O)C(=O)N[C@@H](CC(=O)O)C(=O)N[C@@H](CO)C(=O)N[C@@H](CC(=O)O)C(=O)N[C@H](C(=O)N[C@@H](Cc1c[nH]c2ccccc12)C(=O)N[C@@H](Cc1c[nH]c2ccccc12)C(=O)NCC(=O)NCC(=O)N[C@@H](C)C(=O)N[C@@H](CC(=O)O)C(=O)N[C@H](C(=O)N[C@@H](CC(=O)O)C(=O)N[C@@H](Cc1ccc(O)cc1)C(N)=O)[C@@H](C)O)C(C)C (Ac-EEDDSDVWWGGADTDY-NH2),Ki,[2],301 ± 7 nM
"CC[C@H](C)[C@H](NC(=O)[C@H](Cc1c[nH]c2ccccc12)NC(=O)[C@H](CO)NC(=O)[C@H](CC(=O)O)NC(=O)[C@H](CC(=O)O)NC(=O)[C@H](CCC(=O)O)NC(C)=O)C(=O)N[C@@H](CC(=O)O)C(=O)N[C@@H](Cc1c[nH]c2ccccc12)C(=O)NCC(=O)N1CCC[C@H]1C(=O)N[C@H](C(=O)NCC(=O)N[C@@H](CC(=O)O)C(=O)N[C@@H](CCC(=O)O)C(=O)N[C@@H](CC(=O)O)C(N)=O)[C@@H](C)O [Peptide 29, Ac-EDDSWIDWGPTGDED-NH2] (Ac-EDDSWIDWGPTGDED-NH2)",Ki,[6],5.6 ± 0.7 nM
same,Ki,[7],5.6 ± 0.7 nM
CC[C@H](C)[C@H](NC(=O)[C@H](C)NC(=O)[C@H](Cc1c[nH]c2ccccc12)NC(=O)[C@@H]1CCCN1C(C)=O)C(=O)N[C@H](C(=O)N[C@@H](Cc1c[nH]c2ccccc12)C(=O)NCC(=O)N1CCC[C@H]1C(=O)N[C@H](C(=O)N[C@H](C(N)=O)C(C)C)[C@@H](C)O)C(C)C (Ac-PWAIVWGPTV-NH2),Ki,[3],561 ± 21 nM
CC(=O)N[C@@H](CCC(=O)O)C(=O)N[C@@H](CC(=O)O)C(=O)N[C@@H](CC(=O)O)C(=O)N[C@@H](CO)C(=O)N[C@@H](CC(=O)O)C(=O)N[C@H](C(=O)N[C@@H](Cc1c[nH]c2ccccc12)C(=O)N[C@@H](Cc1c[nH]c2ccccc12)C(=O)N[C@@H](Cc1ccc2ccccc2c1)C(=O)NCC(=O)N[C@@H](C)C(=O)N[C@@H](CC(=O)O)C(=O)N[C@H](C(=O)N[C@@H](CC(=O)O)C(N)=O)[C@@H](C)O)C(C)C (Ac-EDDSDVWW[2Nal]GADTD-NH2),Ki,[5],75 ± 1 nM
CC[C@H](C)[C@H](NC(=O)[C@H](C)NC(=O)[C@H](Cc1c[nH]c2ccccc12)NC(=O)[C@@H]1CCCN1C(C)=O)C(=O)N[C@H](C(=O)N[C@@H](Cc1c[nH]c2ccccc12)C(=O)NCC(=O)N1CCC[C@H]1C(=O)N[C@H](C(=O)N[C@H](C(=O)N[C@@H](CO)C(=O)N[C@@H](CCCNC(=N)N)C(N)=O)C(C)C)[C@@H](C)O)C(C)C (Ac-PWAIVWGPTVSR-NH2),Ki,[3],433 ± 2 nM
CC[C@H](C)[C@H](NC(=O)[C@H](Cc1ccccc1)NC(=O)[C@H](CCC(=O)O)NC(=O)[C@@H](NC(=O)[C@H](CCC(=O)O)NC(C)=O)[C@@H](C)O)C(=O)N[C@@H](C)C(=O)N[C@@H](Cc1c[nH]c2ccccc12)C(=O)N[C@@H](Cc1ccc(O)cc1)C(=O)N1CCC[C@H]1C(=O)N[C@H](C(=O)NCC(=O)N[C@@H](CC(=O)O)C(=O)N[C@@H](CCC(=O)O)C(=O)N[C@@H](CC(=O)O)C(N)=O)[C@@H](C)O [ETEFIAWYPTGDED] (Ac-ETEFIAWYPTGDED-NH2),Ki,[4],199 ± 10 nM
same,Ki,[7],199 ± 10 nM
